Experimental data from article doi:10.1101/2022.11.21.517375v1, “Fragment-Based Hit Discovery via Unsupervised Learning of Fragment-Protein Complexes” (biorxiv, 2022).
Read-outs that look alike come from different tables or passages of the source.

Tests used:
[1] = molecular target: T1, SARS-CoV-2 nsp3-Mac1 (HTRF assay) (Severe acute respiratory syndrome coronavirus 2, UniProt P0DTD1); experiment: HTRF displacement of ADP-ribose-conjugated biotin peptide; assay type: binding
T1 construct: gene rep

[2] = molecular target: T2, SARS-CoV-2 main protease (Mpro) (Severe acute respiratory syndrome coronavirus 2, UniProt P0DTD1); experiment: fluorescence protease assay, fluorogenic peptide, dose response; assay type: biochemical
T2 construct: gene rep

Mac1 (P43 crystals) = molecular target: T3, Mac1 (P43 crystals) (Severe acute respiratory syndrome coronavirus 2, UniProt P0DTD1); experiment: X-ray crystallography, crystal soaking, PanDDA; assay type: binding; conditions: active site; P43 crystals soaked at 10 or 20 mM for 2-[…]
T3 construct: gene rep

CCC(CNc1ncnc2[nH]cnc12)NC(=O)CCC1CCCCC1 (racemic) [Z5551425673]
inhibition at 250 µM ([1]; read-out: % inhibition at 250 μM): 30.1%

COc1ccc2c(C(=O)NNc3nc4ccccc4[nH]3)cc(=O)[nH]c2c1 [ALP-UNI-ed5cdfd2-1]
IC50 [2]: 19.4 µM

O=C(NNc1nc2ccccc2[nH]1)c1cc(=O)[nH]c2ccccc12 [WIL-UNI-d4749f31-37]
IC50 ([2]; pH 7.3, 20 mM HEPES, 1.0 mM TCEP, 50 mM NaCl, 5 nM Mpro, 37 nM substrate, 15 min pre-incubation, room temperature, read-out: IC50): 25.8 µM

CCNc1nc2c(cnn2C)c(=O)[nH]1 [Z1102995175]
% inhibition at 250 μM ([1]; pH 7.0, 25 mM HEPES, 20 mM NaCl, […] protein, 400 nM peptide, room temperature): 24.8%

CC[C@@H](CNc1ncnc2[nH]cnc12)NC(=O)CCC1CCCCC1 [Z5551425673 (S-stereoisomer)]
X-ray crystallography, crystal soaking, PanDDA (Mac1 (P43 crystals)): structure of Z5551425673 (as the S-stereoisomer) bound to the active site
